Key:
Ca^2+ influx in ILC2s = assay: Calcium signaling (Fluo-4) in purified ILC2s; assay type: cell-based, mouse; settings: NmU23 added 60 seconds after baseline; small intestine ILC2s
Experimental: Purified ILC2s from the small intestine were cultured with IL-2 and IL-7 (10 ng/mL) and FBS deprived for 6 hours prior to calcium signaling experiments. ILC2s were stained with Fluo-4 Direct Calcium Assay Kit (Thermo Fisher Scientific) according to manufacturer's protocol. Calcium (Ca^2+) influx, represented by the Fluo-4 AM, was recorded over time on a BD Accuri C6 (BD Biosciences) flow cytometer as previously reported^36. The recombinant mouse NmU23 was added 60 seconds after ILC2 baseline recording. Data was represented by the mean values of Ca^2+ influx kinetics between the ILC2 baseline response and the peak of response after recombinant mouse NmU23 addition.

ILC2s = assay: In vivo administration of NmU23, ILC2- and T cell-derived type 2 cytokines; design: species or system mouse; settings: single dose NmU23 20 μg intraperitoneal, analyzed after 8 hours, vs PBS
Experimental: For in vitro experiments, purified lung and small intestine lamina propria ILC2s were FBS starved for 2 hours prior to stimulation and cultured in complete RPMI (supplemented with 10% foetal bovine serum (FBS), 1% hepes, sodium pyruvate, glutamine, streptomycin and penicillin) at 37° C. For mRNA analysis, ILC2s were stimulated overnight with recombinant mouse Neuromedin U 23 peptide (NmU23, 100 ng/mL; Phoenix pharmaceuticals). Both NmU23-stimulated and control ILC2s were cultured in the presence of IL-2 and IL-7 (10 ng/mL; Peprotech). ILC2s were lysed using RLT buffer (Qiagen). For cytokine protein analysis, ILC2s were incubated exclusively with brefeldin A (eBioscience) for 12 hours prior to intracellular staining. For in vivo experiments, B6 mice were injected intraperitoneal with NmU23 peptide (2 g/day) during Nippostrongylus brasiliensis infection or with a single dose of NmU23 (20 μg) and analyzed after 8 hours. Control mice were treated with PBS alone.
Intracellular staining was performed using IC fixation/permeabilization kit (eBioscience). Flow cytometry analysis and cell sorting were performed using BD LSRFORTESSA and BD FACSAria flow cytometers (BD Biosciences). Data analysis was done using FlowJo software (Tristar). Sorted populations were >95% pure. […]

recombinant mouse Neuromedin U 23 peptide (FKAEYQSPSVGQSKGYFLFRPRN; listed as Mus musculus) [NmU23, NMUR1 agonist neuropeptide, Phoenix pharmaceuticals]
Ca^2+ influx in ILC2s (Fluo-4 AM intensity) (Ca^2+ influx in ILC2s): immediate and robust Ca^2+ influx | T helper cell-derived type 2 cytokines after in vivo administration (ILC2s): unperturbed | type 2 cytokine production from ILC2s after in vivo administration (ILC2s): immediate and selective type 2 cytokine production
